Measurements from paper PMC8069832, “New Amides and Phosphoramidates Containing Selenium: Studies on Their Cytotoxicity and Antioxidant Activities in Breast Cancer” (Antioxidants, 2021).

Legend:
Experiment in all cases: cells
MCF-7 = conditions: Homo sapiens, MCF7, 48 h, read-out: Cell growth (%) MCF-7
CCRF-CEM = conditions: Homo sapiens, 48 h, read-out: Cell growth (%) CCRF-CEM
HT-29 = conditions: Homo sapiens, HT-29, 48 h, read-out: Cell growth (%) HT-29

## Cc1ccc(C(=O)Nc2ccc([Se]C#N)cc2)cc1 [I.2g]
MCF-7
  activity at 10 µM: 70.4%
CCRF-CEM
  activity at 10 µM: 94.3%
HT-29
  activity at 10 µM: 94.1%

## N#C[Se]c1ccc(NC(=O)c2ccc(C#N)cc2)cc1 [I.2d]
MCF-7
  activity at 10 µM: 74.3%
CCRF-CEM
  activity at 10 µM: 115%
HT-29
  activity at 10 µM: 105%

## O=C(Nc1ccc([Se][Se]c2ccc(NC(=O)c3ccno3)cc2)cc1)c1ccno1 [I.1j]
MCF-7
  activity at 10 µM: 92.2%
CCRF-CEM
  activity at 10 µM: 112%
HT-29
  activity at 10 µM: 98.9%

## O=C(Nc1ccc([Se][Se]c2ccc(NC(=O)c3cccs3)cc2)cc1)c1cccs1 [I.1i]
MCF-7
  activity at 10 µM: 104%
CCRF-CEM
  activity at 10 µM: 100%
HT-29
  activity at 10 µM: 98.2%

## COc1ccc(C(=O)Nc2ccc([Se][Se]c3ccc(NC(=O)c4ccc(OC)cc4)cc3)cc2)cc1 [I.1c]
MCF-7
  activity at 10 µM: 79%
CCRF-CEM
  activity at 10 µM: 57.5%
HT-29
  activity at 10 µM: 81.4%

## O=C(Nc1ccc([Se][Se]c2ccc(NC(=O)c3ccccc3)cc2)cc1)c1ccccc1 [I.1a]
MCF-7
  activity at 10 µM: 79.7%
CCRF-CEM
  activity at 10 µM: 103%
HT-29
  activity at 10 µM: 82.6%

## N#C[Se]c1ccc(NC(=O)/C=C/c2ccccc2)cc1 [I.2l]
MCF-7
  activity at 10 µM: 65%
CCRF-CEM
  activity at 10 µM: 62%
HT-29
  activity at 10 µM: 76%

## N#C[Se]c1ccc(NC(=O)C23CC4CC(CC(C4)C2)C3)cc1 [I.2k]
MCF-7
  activity at 10 µM: 113%
CCRF-CEM
  activity at 10 µM: 107%
HT-29
  activity at 10 µM: 99.7%

## N#Cc1ccc(C(=O)Nc2ccc([Se][Se]c3ccc(NC(=O)c4ccc(C#N)cc4)cc3)cc2)cc1 [I.1d]
MCF-7
  activity at 10 µM: 79.1%
CCRF-CEM
  activity at 10 µM: 101%
HT-29
  activity at 10 µM: 109%

## O=C(Nc1ccc([Se][Se]c2ccc(NC(=O)c3cccc4ccccc34)cc2)cc1)c1cccc2ccccc12 [I.1m]
MCF-7
  activity at 10 µM: 75.5%
CCRF-CEM
  activity at 10 µM: 74.4%
HT-29
  activity at 10 µM: 78.8%

## O=P(Nc1ccccc1)(Nc1ccc([Se][Se]c2ccc(NP(=O)(Nc3ccccc3)Oc3ccccc3)cc2)cc1)Oc1ccccc1 (stereo not drawn) [II.1f]
MCF-7
  activity at 10 µM: 90%
CCRF-CEM
  activity at 10 µM: 125%
HT-29
  activity at 10 µM: 106%

## N#C[Se]c1ccc(NC(=O)c2ccccc2)cc1 [I.2a]
MCF-7
  activity at 10 µM: 63.7%
CCRF-CEM
  activity at 10 µM: 103%
HT-29
  activity at 10 µM: 71.6%

## Cc1ccc(OP(=O)(Nc2ccc([Se][Se]c3ccc(NP(=O)(Oc4ccc(C)cc4)Oc4ccc(C)cc4)cc3)cc2)Oc2ccc(C)cc2)cc1 [II.1g]
MCF-7
  activity at 10 µM: 82.6%
CCRF-CEM
  activity at 10 µM: 111%
HT-29
  activity at 10 µM: 104%
